Reference: BindingDB's records for doi:10.1016/0960-894X(96)00014-5 (1996)

Experiment: Compound was tested for inhibition of chymotrypsin-like protease of proteasome from postmortem human liver and brain

| Structure (SMILES) | IC50 [nM] |
| --- | --- |
| CC(C)CC(C=O)NC(=O)C(CCCN=C(N)N[N+](=O)[O-])NC(=O)C(CCCCCCCCN1C(=O)c2ccccc2C1=O)C1CCCC1 (stereo not drawn) [Alpha-ketocarbonyl derivative] | 2 |
| CC(C)CC(NC(=O)C(CCCN=C(N)N[N+](=O)[O-])NC(=O)C(CCCCCCCCC#N)C1CCCC1)B1OC(C)(C)C(C)(C)O1 (stereo not drawn) [Alpha-ketocarbonyl boronic ester derivative] | 8 |
| CC(C)CC(NC(=O)C(CCCN=C(N)N[N+](=O)[O-])NC(=O)C(CCCCCCCCC#N)C1CCCC1)C(=O)CCl (stereo not drawn) [Alpha-ketocarbonyl derivative] | > 1000 |
